This note sets out measurements from patent publication US20230331720A1, “MEDIUM- OR MACRO-CYCLIC BENZYL-SUBSTITUTED HETEROCYCLE DERIVATIVES AND THEIR USES AS OREXIN-2 RECEPTOR AGONISTS” (Orexia Therapeutics Limited, priority 2020, published 2023).

Structures are written as SMILES.

The target of the experiment is T1, human orexin type 2 receptor (hOX2R) (Homo sapiens, UniProt O43614).
T1 construct: expressed in transfected cells
T1 sequence (O43614 1-444): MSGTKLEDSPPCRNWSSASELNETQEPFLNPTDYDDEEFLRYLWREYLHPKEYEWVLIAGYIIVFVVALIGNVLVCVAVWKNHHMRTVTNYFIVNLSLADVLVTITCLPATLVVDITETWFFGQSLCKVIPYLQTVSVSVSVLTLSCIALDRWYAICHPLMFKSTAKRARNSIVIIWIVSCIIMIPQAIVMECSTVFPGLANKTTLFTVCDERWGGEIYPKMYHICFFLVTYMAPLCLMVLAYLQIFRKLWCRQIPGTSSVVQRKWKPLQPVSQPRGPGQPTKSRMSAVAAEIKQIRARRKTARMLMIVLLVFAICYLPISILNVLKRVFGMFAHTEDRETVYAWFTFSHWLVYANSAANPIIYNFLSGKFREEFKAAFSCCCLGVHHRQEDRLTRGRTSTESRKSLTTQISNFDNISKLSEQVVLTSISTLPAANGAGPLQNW
The experiment can be described thus: Orexin type 2 receptor agonist activity, intracellular Ca2+ (FLIPR TETRA). The experiment is classed as cell-based. The following applies: CHO cells expressing hOX2R; Ca2+ fluorescence area; read-out: hOx2 pEC50 (converted). The procedure: Stable cell line generation. Obtainment of cells stably expressing either human orexin type 2 or human orexin type 1 receptor; to obtain a stable cell line the Orexin receptor cDNA was inserted into pcDNA3.1(+) plasmid vector and clones identified by G418 drug resistance selection. […] A single clone for OX2R-CHO and OX1R-CHO were grown in bulk and frozen to generate a cell bank for routine screening.
Measurement of orexin type 2 receptor agonist activity. Chinese hamster ovary (CHO) cells expressing human orexin type 2 receptor (hOX2R) or human orexin type 1 receptor (hOX1R) were seeded in each well of 384 well black clear bottom plates (BD Flacon) at 10,000 cells per well and cultured for 24 hr in an Ham's F12 (Gibco) medium containing 10% fetal calf serum (Sigma Aldrich) under the conditions of 37° C., 5% CO2. After removal of the medium, 50 μl of assay buffer 1 (0.1% bovine serum albumin (Sigma Aldrich), 20 mM HEPES (Molecular Dimensions), […] probenecid (Sigma Aldrich), 1× Calcium 5 dye (Molecular Devices) in Hank's balanced salt solution (Invitrogen)) was added, and the cells were incubated for 60 min under the conditions of 37° C., 5% CO2. A test compound was dissolved in dimethyl sulfoxide (Sigma Aldrich) to 10 mM, and then diluted with assay buffer 2 (20 mM HEPES, Hank's balanced salt solution, 0.1% bovine serum albumin). For the reaction, a test compound solution (10 μl) was added using Fluorescent Imaging Plate Reader TETRA (FLIPR TETRA: manufactured by Molecular Devices), a fluorescence value (excitation wavelength 488 nm, measurement wavelength 570 nm) of each well was measured every one second for 2 min, and the agonist activity was determined using the area of the fluorescence value as an indicator of intracellular Ca^2+ concentration. The agonist activity of the test compound was calculated assuming that the fluorescence value of the well added with only the dilution buffer was 0% and the fluorescence value of the well added with 10 nM human orexin A (Tocris) buffer was 100%. As used herein, Emax indicates the value at 10 μM concentration when orexin A is converted to a full agonist (maximum value of agonist activity: 100%).
As to `CCS(=O)(=O)NC1CCN2C(=O)CCOCCCc3ccccc3-c3cccc(c3)CC12` (racemic) [Compound A1-20, N-(5-oxo-8-oxa-4(2,1)-pyrrolidina-1(1,2),2(1,3)-dibenzenacyclo-undecaphane-4^3-yl)ethanesulfonamide], the EC50 was 100 to 1000 nM.
Turning to `CS(=O)(=O)N[C@H]1CCCN2C(=O)CCOc3ccccc3-c3cccc(c3F)C[C@@H]12` [Compound A1-82, N-((4^2S,4^3S)-22-fluoro-5-oxo-8-oxa-4(2.1)-piperidina-1(1,2),2(1.3)-dibenzenacyclooctaphane-4^3-yl)methanesulfonamide], the EC50 was 1 to 10 nM.
Then `CCS(=O)(=O)NC1CCN2C(=O)NCCCCCc3ccccc3-c3cccc(c3)CC12` (racemic) [Compound A1-50, N-(5-oxo-6-aza-4(2,1)-pyrrolidina-1(1,2),2(1,3)-dibenzenacyclo-undecaphane-43-yl)ethanesulfonamide], with 1 to 10 nM; and `CCS(=O)(=O)N[C@H]1CCCN2C(=O)CCOc3ccccc3-c3cccc(c3)C[C@@H]12` [Compound A1-74, N-((4^2,4^3S)-5-oxo-8-oxa-4(2,1)-piperidina-1(1,2),2(1.3)-dibenzenacyclo-octaphane-4^3-yl)ethanesulfonamide], with 10 to 100 nM; and `CCS(=O)(=O)NC1CCN2C(=O)CCCOc3ccccc3-c3cccc(c3)CC12` (racemic) [Compound A1-31, N-(5-oxo-9-oxa-4(2,1)-pyrrolidina-1(1.2),2(1,3)-dibenzenacyclo-nonaphane-4^3-yl)ethanesulfonamide], with 100 to 1000 nM.
For `CCS(=O)(=O)NC1CCN2C(=O)CCCc3ccccc3-c3cccc(c3)CC12` (racemic) [Compound A1-19, N-(5-oxo-4(2,1)-pyrrolidina-1(1,2),2(1,3)-dibenzenacyclooctaphane-4^3-yl)ethanesulfonamide], the EC50 is 100 to 1000 nM.
Then `CCS(=O)(=O)N[C@H]1CCN2C(=O)N(C)CCCCCc3ccccc3-c3cccc(c3)C[C@@H]12` [Compound A1-10, N-((4^2S,4^3S)-6-methyl-5-oxo-6-aza-4(2,1)-pyrrolidina-1(1,2),2(1,3)-dibenzena-cycloundecaphane-4^3-yl)ethanesulfonamide], with 0.1 to 1 nM; and `CCS(=O)(=O)N[C@H]1CCCN2C(=O)CCOc3ccccc3-c3cccc(c3)C[C@@H]12` [Compound A1-72], with 1 to 10 nM.
Then `O=C1CCOc2ccccc2-c2cccc(c2)C[C@H]2[C@@H](NS(=O)(=O)CF)C3(CC3)CN12` [Compound A1-99], with 10 to 100 nM.
For the molecule `CCS(=O)(=O)N[C@H]1CCN2C(=O)N(C)CCOc3ccccc3-c3cccc(c3)C[C@@H]12` [Compound A1-71], the EC50 was 10 to 100 nM.
Then `O=C1CCOc2ccccc2-c2cc(F)cc(c2F)C[C@H]2[C@@H](NS(=O)(=O)CF)CCCN12` [Compound A1-97], with 10 to 100 nM; and `O=C1CCOc2ccccc2-c2cccc(c2F)C[C@H]2[C@@H](NS(=O)(=O)C(F)F)[C@@H](F)CN12` [Compound A1-96], with 10 to 100 nM.
With `CS(=O)(=O)N[C@H]1CCCN2C(=O)NCCOc3ccccc3-c3cccc(c3)C[C@@H]12` [Compound A1-4, N-((4^2S,4^3S)-5-oxo-9-oxa-6-aza-4(2,1)-piperidina-1(1,2),2(1,3)-dibenzenacyclo-nonaphane-4^3-yl)methanesulfonamide] the figure was 100 to 1000 nM; with `CS(=O)(=O)N[C@H]1CCCN2C(=O)OCCOc3ccccc3-c3cccc(c3)C[C@@H]12` [Compound A1-60], 10 to 100 nM.
`CS(=O)(=O)N[C@H]1CCCN2C(=O)NCCOc3ccccc3-c3cccc(c3F)C[C@@H]12` [Compound A1-73]: the EC50 is 1 to 10 nM.
With `CN1CCOc2ccccc2-c2cccc(c2F)C[C@H]2[C@@H](NS(=O)(=O)CF)[C@@H](F)CN2C1=O` [Compound A1-92, N-((4^2S,4^3R,4^4S)-2^2,4^4-difluoro-6-methyl-5-oxo-9-oxa-6-aza-4(2,1)-pyrrolidina-1(1,2),2(1,3)-dibenzenacyclononaphane-4^3-yl)-1-fluoromethanesulfonamide] the figure was 1 to 10 nM; with `COc1c2cccc1-c1ccccc1OCCC(=O)N1CCC[C@H](NS(C)(=O)=O)[C@@H]1C2` [Compound A1-83], 1 to 10 nM.
Regarding `CCS(=O)(=O)N[C@H]1CCN2C(=O)NCCOc3ccccc3-c3cccc(c3)C[C@@H]12` [Compound A1-7, N-((4^2S,4^3S)-5-oxo-9-oxa-6-aza-4(2,1)-pyrrolidina-1-(1,2),2-(1,3)-dibenzenacyclo-nonaphane-4′-yl)ethanesulfonamide], the EC50 is 10 to 100 nM.
On to `O=C1CCOc2ccc(F)cc2-c2cccc(c2)C[C@H]2[C@@H](NS(=O)(=O)CF)CCCN12` [Compound A1-91, 1-fluoro-N-((4^2S,4^3S)-15-fluoro-5-oxo-8-oxa-4(2,1)-piperidina-1(1,2),2(1,3)-dibenzenacyclooctaphane-4^3-yl)methanesulfonamide], for which the EC50 is 1 to 10 nM.
Regarding `CS(=O)(=O)NC1CCN2C(=O)N3CC(CCCc4ccccc4-c4cccc(c4)CC12)C3` (racemic) [Compound A1-14, N-(5-oxo-4(2,1)-pyrrolidina-6(1,3)-azetidina-1(1,2),2(1,3)-dibenzenacyclo-nonaphane-4^3-yl)methanesulfonamide], the EC50 was 10 to 100 nM.
For the molecule `CCS(=O)(=O)NC1CCN2C(=O)N3CC[C@H]3COc3ccccc3-c3cccc(c3)CC12` (stereo partly shown) [Compound A1-65], the EC50 is 10 to 100 nM.
As for `O=C1CCOc2c(F)cccc2-c2cccc(c2)C[C@H]2[C@@H](NS(=O)(=O)CF)CCCN12` [Compound A1-90, 1-fluoro-N-((4^2S,4^3S)-13-fluoro-5-oxo-8-oxa-4(2,1)-piperidina-1(1,2),2(1,3)-dibenzenacyclooctaphane-4^3-yl)methanesulfonamide], the EC50 is 0.1 to 1 nM.
Then `O=C1CCOc2cccc(F)c2-c2cccc(c2)C[C@H]2[C@@H](NS(=O)(=O)CF)CCCN12` [Compound A1-89, 1-fluoro-N-((4^2S,4^3S)-16-fluoro-5-oxo-8-oxa-4(2,1)-piperidina-1(1,2),2(1,3)-dibenzenacyclooctaphane-4^3-yl)methanesulfonamide], with 10 to 100 nM; and `CS(=O)(=O)N[C@H]1CCCN2C(=O)CCOc3ccccc3-c3cccc(c3)C[C@@H]12` [Compound A1-78, N-((4^2S,4^3S)-5-oxo-8-oxa-4(2,1)-piperidina-1(1,2),2(1,3)-dibenzenacyclo-octaphane-4^3-yl)methanesulfonamide], with 1 to 10 nM.
With `CCS(=O)(=O)NC1CCN2C(=O)CCC/C=C/Cc3ccccc3-c3cccc(c3)CC12` (racemic) [Compound A1-41, (E/Z)—N-(5-oxo-4(2,1)-pyrrolidina-1(1.2),2(1,3)-dibenzenacyclo-undecaphan-9-en-4^3-yl)ethanesulfonamide] the figure was 10 to 100 nM.
On to `CS(=O)(=O)NC1CCCN2C(=O)OCCOc3ccccc3-c3cccc(c3)CC12` (stereo not shown) [Compound A1-63], for which the EC50 was 10 to 100 nM.
Then `COc1c2cccc1-c1ccccc1OCCN(C)C(=O)N1C[C@H](F)[C@H](NS(=O)(=O)CF)[C@@H]1C2` [Compound A1-86], with 1 to 10 nM.
On to `CCS(=O)(=O)NC1CCN2C(=O)CCCCCCc3c(F)cc(F)cc3-c3cccc(c3)CC12` (racemic) [Compound A1-29, N-(1^3,1^5-difluoro-5-oxo-4(2,1)-pyrrolidina-1(1,2),2(1,3)-dibenzenacyclo-undecaphane-4^3-yl)ethanesulfonamide], for which the EC50 is 100 to 1000 nM.
With `CS(=O)(=O)N[C@H]1CCCN2C(=O)CCCc3ccccc3-c3cccc(c3)C[C@@H]12` [Compound A1-67] the figure was 10 to 100 nM; with `CS(=O)(=O)N[C@@H]1CCCN2C(=O)CCCOc3ccccc3-c3cccc(c3)C[C@H]12` (racemic) [Compound A1-6, N-(5-oxo-9-oxa-4(2,1)-piperidina-1(1,2),2(1,3)-dibenzenacyclononaphane-4^3-yl)methanesulfonamide], 10 to 100 nM; with `CCS(=O)(=O)N[C@H]1CCN2C(=O)NCCCCCc3ccccc3-c3cccc(c3)C[C@@H]12` (single isomer, unassigned) [Compound A1-42, N-((4^2S,4^3S)-5-oxo-6-aza-4(2,1)-pyrrolidina-1(1,2),2(1,3)-dibenzenacycloundecaphane-4^3-yl)ethanesulfonamide], 0.1 to 1 nM.
